Experimental data as given in ChEMBL document CHEMBL3297656, “New coumarin derivatives: design, synthesis and use as inhibitors of hMAO” (Bioorg Med Chem, 2014).

Experiments:
[1] = target: T1, Amine oxidase [flavin-containing] A (Homo sapiens, UniProt P21397); experiment: Inhibition of human recombinant MAO-A assessed as H2O2 production using p-tyramine substrate at 60 uM by fluorimetric method
T1 sequence (P21397 whole entry): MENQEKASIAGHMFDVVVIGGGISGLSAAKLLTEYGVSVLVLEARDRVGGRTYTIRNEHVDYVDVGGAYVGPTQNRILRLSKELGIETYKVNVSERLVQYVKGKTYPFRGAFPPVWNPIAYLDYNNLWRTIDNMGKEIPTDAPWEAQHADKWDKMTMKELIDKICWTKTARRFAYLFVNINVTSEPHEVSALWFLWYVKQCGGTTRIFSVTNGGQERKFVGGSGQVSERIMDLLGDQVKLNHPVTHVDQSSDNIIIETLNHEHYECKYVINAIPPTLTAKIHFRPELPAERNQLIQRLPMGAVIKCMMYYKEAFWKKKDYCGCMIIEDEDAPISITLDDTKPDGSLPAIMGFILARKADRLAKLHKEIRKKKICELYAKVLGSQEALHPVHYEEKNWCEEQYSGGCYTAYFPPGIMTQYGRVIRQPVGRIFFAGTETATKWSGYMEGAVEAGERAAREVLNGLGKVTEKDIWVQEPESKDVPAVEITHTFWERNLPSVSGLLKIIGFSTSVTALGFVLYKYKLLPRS

[2] = target: T2, Amine oxidase [flavin-containing] B (Homo sapiens, UniProt P27338); experiment: Inhibition of human recombinant MAO-B assessed as H2O2 production using p-tyramine substrate at 60 uM by fluorimetric method
T2 sequence (P27338 whole entry): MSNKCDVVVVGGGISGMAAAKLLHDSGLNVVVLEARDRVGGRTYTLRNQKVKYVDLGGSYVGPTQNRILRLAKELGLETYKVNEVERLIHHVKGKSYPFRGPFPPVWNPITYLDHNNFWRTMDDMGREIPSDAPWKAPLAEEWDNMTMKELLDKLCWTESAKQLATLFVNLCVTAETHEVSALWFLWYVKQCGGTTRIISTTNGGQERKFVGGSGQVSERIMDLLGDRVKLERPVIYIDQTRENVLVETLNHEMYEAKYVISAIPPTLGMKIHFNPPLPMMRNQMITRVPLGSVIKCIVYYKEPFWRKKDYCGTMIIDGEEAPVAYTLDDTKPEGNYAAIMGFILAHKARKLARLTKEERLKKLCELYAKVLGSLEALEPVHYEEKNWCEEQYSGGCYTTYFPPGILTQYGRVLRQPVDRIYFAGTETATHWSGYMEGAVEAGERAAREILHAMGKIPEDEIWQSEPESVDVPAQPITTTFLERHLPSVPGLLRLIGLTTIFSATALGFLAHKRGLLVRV

[3] = target: T2, Amine oxidase [flavin-containing] B; experiment: Inhibition of human recombinant MAO-B assessed as H2O2 production using p-tyramine substrate by fluorimetric method
[4] = species on record: Homo sapiens; experiment: Selectivity index, ratio of IC50 for human recombinant MAO-A to IC50 for human recombinant MAO-B
[5] = target: T1, Amine oxidase [flavin-containing] A; experiment: Inhibition of human recombinant MAO-A assessed as H2O2 production using p-tyramine substrate by fluorimetric method

Row | SMILES | inhibition (INH) [1] | inhibition (INH) [2] | IC50 [3] [µM] | Ratio IC50 [4] | IC50 [5] [µM]
1 | CCCCCCN(CCCCCC)C(=O)c1cc2cc([N+](=O)[O-])ccc2oc1=O | Not Active | Not Active |  |  | 
2 | CC(C)NC(=O)c1cc2ccccc2oc1=O |  |  |  |  | 35.5
3 | CC(C)NC(=O)c1cc2cc([N+](=O)[O-])ccc2oc1=O | Not Active | Not Active |  |  | 
4 | CCCCSC(=O)c1cc2cc([N+](=O)[O-])ccc2oc1=O | Not Active | Not Active |  |  | 
5 | O=C(Sc1ccc(Br)cc1)c1cc2cc([N+](=O)[O-])ccc2oc1=O | Not Active |  | 20.7 | 2.6 | 
6 | CCC(C)NC(=O)c1cc2cc(Br)cc(Br)c2oc1=O (stereo not drawn) |  |  | 45.4 | 0.9 | 42.3
7 | CCCCSC(=O)c1cc2cc(Br)c(Br)cc2oc1=O | Not Active | Not Active |  |  | 
8 | CC(C)(C)NC(=O)c1cc2cc([N+](=O)[O-])ccc2oc1=O | Not Active | Not Active |  |  | 
9 | O=C(Sc1ccc(Br)cc1)c1cc2cc(Br)c(Br)cc2oc1=O | Not Active |  | 25.2 | 2.4 | 

More lines, now with the values ahead:

Row | inhibition (INH) [1] | inhibition (INH) [2] | IC50 [3] [µM] | Ratio IC50 [4] | IC50 [5] [µM] | SMILES
10 | Not Active |  | 7.68 | 7.8 |  | O=C(Sc1ncccn1)c1cc2ccccc2oc1=O
11 | Not Active |  | 17.4 | 3.4 |  | CCC(C)NC(=O)c1cc2cc([N+](=O)[O-])ccc2oc1=O (stereo not drawn)
12 |  |  | 7.9 | 5.1 | 40.4 | CC(C)(C)NC(=O)c1cc2ccccc2oc1=O
13 | Not Active |  | 15.2 | 3.9 |  | O=C(Sc1ccc(Br)cc1)c1cc2cc(C(F)(F)F)ccc2oc1=O
14 |  |  | 6.5 | 3.5 | 22.7 | O=C(Sc1ccc(Br)cc1)c1cc2ccccc2oc1=O
15 |  |  | 0.21 | 189 | 39.7 | O=C(SCc1ccco1)c1cc2ccccc2oc1=O
16 |  |  | 13.1 | 2.9 | 48.3 | O=C(SCc1ccco1)c1cc2cc([N+](=O)[O-])ccc2oc1=O
17 | Not Active |  | 16 | 3.8 |  | CCCCSC(=O)c1cc2ccccc2oc1=O
18 | Not Active |  | 5.68 | 10.6 |  | O=C(SCc1ccco1)c1cc2cc(Br)c(Br)cc2oc1=O
19 |  |  | 10.3 | 2.2 | 22.7 | CC(C)NC(=O)c1cc2cc(Br)cc(Br)c2oc1=O
20 |  |  | 7.41 | 1.4 | 10.1 | CCCCCCN(CCCCCC)C(=O)c1cc2cc(Br)cc(Br)c2oc1=O
